Source: PubChem BioAssay AID1963985 (Molecular Pharmacology Branch, DTP, NCI, 2024)

System: 252836-082-R-J2-PDC tumor spheroids, viability
Assay: Anticancer human tumor 252836-082-R-J2-PDC patient-derived head and neck squamous cell carcinoma cell line growth inhibition [PI3K]
Conditions: spheroids with HUVEC and MSC; for IC50: curve of first compound; for viability, T/C: stronger effect = lower value
Method in brief: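 Combination activity was assessed by viability in multicellular tumor spheroids carrying HUVEC and MSC components. Agents were tested with PI3K inhibitors from a Cmax-based top dose (or 10 microM) downward in half-log increments.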
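Note: spheroids exposed to agents for seven days before readout.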
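Throughout, for viability, T/C: percent of vehicle DMSO control viability so 100% = untreated growth.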

SMILES: Cn1ncnc1[C@H]1c2n[nH]c(=O)c3cc(F)cc(c23)N[C@@H]1c1ccc(F)cc1 + Cc1nc(NC(=O)N2CCCC2C(N)=O)sc1-c1ccnc(C(C)(C)C(F)(F)F)c1
- IC50 (second compound 0.0316 µM): > 100 nM
- IC50 (second compound 0.1 µM): > 100 nM
- IC50 (second compound 0.316 µM): > 100 nM
- IC50 (second compound 1 µM): 17.2 nM
- IC50 (second compound 3.16 µM): < 0.316 nM
- IC50 (second compound 10 µM): < 0.316 nM
- viability, T/C (second compound 0.0316 µM, first compound 0.000316 µM): 88.5%
- viability, T/C (second compound 0.0316 µM, first compound 0.001 µM): 94.1%
- viability, T/C (second compound 0.0316 µM, first compound 0.00316 µM): 96.9%
- viability, T/C (second compound 0.0316 µM, first compound 0.01 µM): 76.2%
- viability, T/C (second compound 0.0316 µM, first compound 0.0316 µM): 75.2%
- viability, T/C (second compound 0.0316 µM, first compound 0.1 µM): 58.5%
- viability, T/C (second compound 0.1 µM, first compound 0.000316 µM): 80.2%
- viability, T/C (second compound 0.1 µM, first compound 0.001 µM): 71.3%
- viability, T/C (second compound 0.1 µM, first compound 0.00316 µM): 83.4%
- viability, T/C (second compound 0.1 µM, first compound 0.01 µM): 65.6%
- viability, T/C (second compound 0.1 µM, first compound 0.0316 µM): 78.5%
- viability, T/C (second compound 0.1 µM, first compound 0.1 µM): 58.4%
- viability, T/C (second compound 0.316 µM, first compound 0.000316 µM): 62.3%
- viability, T/C (second compound 0.316 µM, first compound 0.001 µM): 70.8%
- viability, T/C (second compound 0.316 µM, first compound 0.00316 µM): 66.6%
- viability, T/C (second compound 0.316 µM, first compound 0.01 µM): 57.6%
- viability, T/C (second compound 0.316 µM, first compound 0.0316 µM): 55.6%
- viability, T/C (second compound 0.316 µM, first compound 0.1 µM): 50.6%
- viability, T/C (second compound 1 µM, first compound 0.000316 µM): 58.5%
- viability, T/C (second compound 1 µM, first compound 0.001 µM): 59.2%
- viability, T/C (second compound 1 µM, first compound 0.00316 µM): 53.9%
- viability, T/C (second compound 1 µM, first compound 0.01 µM): 61.7%
- viability, T/C (second compound 1 µM, first compound 0.0316 µM): 40.6%
- viability, T/C (second compound 1 µM, first compound 0.1 µM): 32.4%
- viability, T/C (second compound 3.16 µM, first compound 0.000316 µM): 42.7%
- viability, T/C (second compound 3.16 µM, first compound 0.001 µM): 48.8%
- viability, T/C (second compound 3.16 µM, first compound 0.00316 µM): 39%
- viability, T/C (second compound 3.16 µM, first compound 0.01 µM): 44.7%
- viability, T/C (second compound 3.16 µM, first compound 0.0316 µM): 40.4%
- viability, T/C (second compound 3.16 µM, first compound 0.1 µM): 23.4%
- viability, T/C (second compound 10 µM, first compound 0.000316 µM): 31.8%
- viability, T/C (second compound 10 µM, first compound 0.001 µM): 38.5%
- viability, T/C (second compound 10 µM, first compound 0.00316 µM): 33.6%
- viability, T/C (second compound 10 µM, first compound 0.01 µM): 26.5%
- viability, T/C (second compound 10 µM, first compound 0.0316 µM): 21.9%
- viability, T/C (second compound 10 µM, first compound 0.1 µM): 21.6%

SMILES: Cn1cnc2c(F)c(Nc3ccc(Br)cc3Cl)c(C(=O)NOCCO)cc21 + CC(Nc1ccc2c(c1)OCCn1cc(N3C(=O)OCC3C(F)F)nc1-2)C(N)=O
- IC50 (second compound 0.00316 µM): > 3000 nM
- IC50 (second compound 0.01 µM): 2420 nM
- IC50 (second compound 0.0316 µM): 1500 nM
- IC50 (second compound 0.1 µM): 558 nM
- IC50 (second compound 0.316 µM): < 9.49 nM
- IC50 (second compound 1 µM): < 9.49 nM
- viability, T/C (second compound 0.00316 µM, first compound 0.00949 µM): 81.4%
- viability, T/C (second compound 0.00316 µM, first compound 0.03 µM): 73.8%
- viability, T/C (second compound 0.00316 µM, first compound 0.0949 µM): 86.3%
- viability, T/C (second compound 0.00316 µM, first compound 0.3 µM): 79.6%
- viability, T/C (second compound 0.00316 µM, first compound 0.949 µM): 72.4%
- viability, T/C (second compound 0.00316 µM, first compound 3 µM): 52.1%
- viability, T/C (second compound 0.01 µM, first compound 0.00949 µM): 81.7%
- viability, T/C (second compound 0.01 µM, first compound 0.03 µM): 71.2%
- viability, T/C (second compound 0.01 µM, first compound 0.0949 µM): 78.5%
- viability, T/C (second compound 0.01 µM, first compound 0.3 µM): 76.9%
- viability, T/C (second compound 0.01 µM, first compound 0.949 µM): 73.8%
- viability, T/C (second compound 0.01 µM, first compound 3 µM): 44.5%
- viability, T/C (second compound 0.0316 µM, first compound 0.00949 µM): 66.1%
- viability, T/C (second compound 0.0316 µM, first compound 0.03 µM): 60.7%
- viability, T/C (second compound 0.0316 µM, first compound 0.0949 µM): 77.9%
- viability, T/C (second compound 0.0316 µM, first compound 0.3 µM): 65.2%
- viability, T/C (second compound 0.0316 µM, first compound 0.949 µM): 55.1%
- viability, T/C (second compound 0.0316 µM, first compound 3 µM): 42.4%
- viability, T/C (second compound 0.1 µM, first compound 0.00949 µM): 58.9%
- viability, T/C (second compound 0.1 µM, first compound 0.03 µM): 54.7%
- viability, T/C (second compound 0.1 µM, first compound 0.0949 µM): 58.4%
- viability, T/C (second compound 0.1 µM, first compound 0.3 µM): 51.7%
- viability, T/C (second compound 0.1 µM, first compound 0.949 µM): 47.8%
- viability, T/C (second compound 0.1 µM, first compound 3 µM): 31.4%
- viability, T/C (second compound 0.316 µM, first compound 0.00949 µM): 49.9%
- viability, T/C (second compound 0.316 µM, first compound 0.03 µM): 47.6%
- viability, T/C (second compound 0.316 µM, first compound 0.0949 µM): 47.5%
- viability, T/C (second compound 0.316 µM, first compound 0.3 µM): 46.3%
- viability, T/C (second compound 0.316 µM, first compound 0.949 µM): 30.8%
- viability, T/C (second compound 0.316 µM, first compound 3 µM): 18.2%
- viability, T/C (second compound 1 µM, first compound 0.00949 µM): 42.5%
- viability, T/C (second compound 1 µM, first compound 0.03 µM): 40%
- viability, T/C (second compound 1 µM, first compound 0.0949 µM): 37%
- viability, T/C (second compound 1 µM, first compound 0.3 µM): 38%
- viability, T/C (second compound 1 µM, first compound 0.949 µM): 29.1%
- viability, T/C (second compound 1 µM, first compound 3 µM): 13.3%
